Among the data in PubChem BioAssay (NCI) are GI50 and TGI values, retold here.

Among the test systems are SF-295 CNS; RXF 393 renal; UACC-62 melanoma; SNB-19 CNS; HT29 colon; SK-MEL-5 melanoma; RPMI-8226 leukemia; SK-MEL-2 melanoma; OVCAR-5 ovarian; HS 578T breast.
Holding throughout (experiment): NCI tumour cell line growth inhibition, 48 h

The structures appear in SMILES notation.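 Each compound was tested at five concentrations against cells in 96-well plates for 48 hours. The concentration for 50% growth inhibition is given as GI50. At the TGI there is no net growth.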

Regarding `COc1cc2cc(Oc3ccc(NC(=O)Nc4cc(C(F)(F)F)cc(C(F)(F)F)c4)cc3)c(C)nc2cc1OCCN1CCOCC1`, the GI50 with SF-295 CNS was 1.14 µM; in the experiment with RXF 393 renal, 1.12 µM; in the experiment on UACC-62 melanoma, 1.67 µM; with SNB-19 CNS, 1.88 µM; in the experiment with HT29 colon, 1.75 µM; in the experiment on SK-MEL-5 melanoma it was 0.885 µM. Further, the GI50 was 0.84 µM in the experiment with RPMI-8226 leukemia, 1.74 µM in the experiment on SK-MEL-2 melanoma, 2.18 µM with OVCAR-5 ovarian and 1.56 µM with HS 578T breast. For the same molecule, the TGI with SF-295 CNS amounted to 2.92 µM; in the experiment on RXF 393 renal, 2.99 µM; in the experiment on UACC-62 melanoma, 6.9 µM; with SNB-19 CNS it was 7.42 µM; in the experiment with HT29 colon, 7.14 µM; in the experiment on SK-MEL-5 melanoma it was 1.66 µM. The TGI in the experiment with RPMI-8226 leukemia came to 2.12 µM; in the experiment with SK-MEL-2 melanoma, 6.91 µM; with OVCAR-5 ovarian it was 7.97 µM; in the experiment on HS 578T breast it was 7 µM.

In the case of `CSC1=NC(=Nc2c(C)cccc2C)C2(CCC(C(C)(C)C)CC2)N1c1ccc(Cl)cc1` (stereo not given), the GI50 in the experiment with SF-295 CNS is 29.9 µM; in the experiment with RXF 393 renal it was 52.4 µM; in the experiment on UACC-62 melanoma it was 45.3 µM; in the experiment on SNB-19 CNS, over 100 µM; in the experiment on HT29 colon, 38 µM; in the experiment with SK-MEL-5 melanoma, 9.32 µM. The GI50 with RPMI-8226 leukemia was 6.35 µM; in the experiment with SK-MEL-2 melanoma, over 100 µM; in the experiment on OVCAR-5 ovarian, over 100 µM; in the experiment on HS 578T breast, 95.8 µM. Moreover, the TGI in the experiment with SF-295 CNS, in the experiment on RXF 393 renal, in the experiment with UACC-62 melanoma, in the experiment on SNB-19 CNS, with HT29 colon and in the experiment on SK-MEL-5 melanoma was over 100 µM each time. Moreover, the TGI in the experiment on RPMI-8226 leukemia, with SK-MEL-2 melanoma, with OVCAR-5 ovarian and in the experiment with HS 578T breast was over 100 µM throughout.

In the case of `CCOCC1(COCC)CCC(c2[nH]ncc2CN(C)CCNC)CC1`, the GI50 in the experiment on SF-295 CNS is over 100 µM; in the experiment on RXF 393 renal, 65.2 µM; with UACC-62 melanoma it was over 100 µM; in the experiment on SNB-19 CNS, over 100 µM; in the experiment on HT29 colon, 33.3 µM; in the experiment with SK-MEL-5 melanoma it was over 100 µM. Also, the GI50 in the experiment with RPMI-8226 leukemia is 19.8 µM; with SK-MEL-2 melanoma, over 100 µM; with OVCAR-5 ovarian it was over 100 µM; with HS 578T breast, over 100 µM. Also, the TGI in the experiment on SF-295 CNS, in the experiment on RXF 393 renal, in the experiment with UACC-62 melanoma, in the experiment with SNB-19 CNS, in the experiment on HT29 colon and with SK-MEL-5 melanoma was over 100 µM in each case. For the same molecule, the TGI in the experiment with RPMI-8226 leukemia, with SK-MEL-2 melanoma, in the experiment with OVCAR-5 ovarian and in the experiment with HS 578T breast was over 100 µM throughout.

`COc1cc2oc(-c3cccc(C(=O)Nc4ccc(Cl)cc4)c3)cc(=O)c2c(OC)c1OC`: the GI50 was 1.47 µM in the experiment with SF-295 CNS; 1.25 µM with RXF 393 renal; 2.5 µM with UACC-62 melanoma; 6.35 µM in the experiment with SNB-19 CNS; 1.97 µM in the experiment with HT29 colon; 1.28 µM in the experiment on SK-MEL-5 melanoma. In addition, the GI50 in the experiment with RPMI-8226 leukemia is 0.49 µM; in the experiment on SK-MEL-2 melanoma, 2.96 µM; with OVCAR-5 ovarian, 1.87 µM; in the experiment with HS 578T breast, 2.95 µM. In addition, the TGI in the experiment on SF-295 CNS is 3.51 µM; in the experiment on RXF 393 renal it was 5.09 µM; with UACC-62 melanoma it was 8.65 µM; with SNB-19 CNS it was over 100 µM; in the experiment with HT29 colon, 6.65 µM; in the experiment on SK-MEL-5 melanoma, 2.68 µM. Also, the TGI is 3.79 µM in the experiment with RPMI-8226 leukemia, 9.22 µM with SK-MEL-2 melanoma, over 100 µM in the experiment on OVCAR-5 ovarian and over 100 µM in the experiment with HS 578T breast.

Regarding `c1cc(N[C@@H]2CCNC2)nc(-c2cnc3ccc(-c4cn[nH]c4)cn23)c1`, the GI50 in the experiment with SF-295 CNS was 12 µM; in the experiment with RXF 393 renal, 2.56 µM; in the experiment with UACC-62 melanoma it was 5.02 µM; in the experiment with SNB-19 CNS, 4.26 µM; with HT29 colon it was 12.1 µM; with SK-MEL-5 melanoma, 14.1 µM. Further, the GI50 in the experiment on RPMI-8226 leukemia was 11 µM; with SK-MEL-2 melanoma, 2.55 µM; in the experiment with OVCAR-5 ovarian, 6.06 µM; in the experiment with HS 578T breast it was 1.69 µM. Further, the TGI was over 55 µM with SF-295 CNS; 11.7 µM with RXF 393 renal; 20.3 µM in the experiment on UACC-62 melanoma; 34.9 µM with SNB-19 CNS; over 96.8 µM in the experiment on HT29 colon; 39.4 µM in the experiment on SK-MEL-5 melanoma. For the same molecule, the TGI with RPMI-8226 leukemia is 43.9 µM; with SK-MEL-2 melanoma, 6.82 µM; in the experiment on OVCAR-5 ovarian, over 95.4 µM; in the experiment with HS 578T breast, 5.54 µM.

As for `O=C(CS(=O)(=O)c1nc2ccccc2nc1-c1ccccc1)Nc1ccc(F)cc1`, the GI50 is over 100 µM in the experiment on SF-295 CNS; over 100 µM in the experiment on RXF 393 renal; 40.1 µM in the experiment on UACC-62 melanoma; 98.9 µM with SNB-19 CNS; 33.6 µM in the experiment with HT29 colon; 23.9 µM in the experiment on SK-MEL-5 melanoma. For the same molecule, the GI50 was 29.1 µM with RPMI-8226 leukemia, 51.9 µM in the experiment with SK-MEL-2 melanoma, over 100 µM in the experiment with OVCAR-5 ovarian and 29.7 µM in the experiment on HS 578T breast. The TGI was over 100 µM in the experiment with SF-295 CNS; over 100 µM in the experiment on RXF 393 renal; over 100 µM in the experiment with UACC-62 melanoma; over 100 µM in the experiment with SNB-19 CNS; over 100 µM with HT29 colon; 94.6 µM with SK-MEL-5 melanoma. Moreover, the TGI in the experiment on RPMI-8226 leukemia is over 100 µM; in the experiment on SK-MEL-2 melanoma, over 100 µM; in the experiment with OVCAR-5 ovarian, over 100 µM; in the experiment on HS 578T breast it was 94.3 µM.

With `CN(C)c1ccc(/C=C\c2ccnc3ccccc23)cc1`, the GI50 in the experiment with SF-295 CNS was 3.56 µM; in the experiment with RXF 393 renal, 3.2 µM; with UACC-62 melanoma, 6.18 µM; in the experiment on SNB-19 CNS it was 10.6 µM; in the experiment on HT29 colon it was 2.49 µM; in the experiment on SK-MEL-5 melanoma, 2.96 µM. Moreover, the GI50 is 4.02 µM in the experiment on RPMI-8226 leukemia, 21.2 µM in the experiment with SK-MEL-2 melanoma, 12.7 µM in the experiment on OVCAR-5 ovarian and 13 µM in the experiment with HS 578T breast. In addition, the TGI is over 44.7 µM in the experiment with SF-295 CNS; over 79.6 µM with RXF 393 renal; over 100 µM in the experiment on UACC-62 melanoma; over 100 µM in the experiment with SNB-19 CNS; 12.4 µM in the experiment on HT29 colon; 9.69 µM with SK-MEL-5 melanoma. Besides, the TGI is over 85 µM with RPMI-8226 leukemia, over 100 µM with SK-MEL-2 melanoma, over 100 µM in the experiment with OVCAR-5 ovarian and over 47.9 µM in the experiment with HS 578T breast.
